Patent publication US5955464A, “4-anilinoquinazoline derivatives bearing a heteroaryl substituted at the 6-position and possessing anti-cell-proliferation properties” (Zeneca Limited, priority 1994, dated 1999)
One block for each compound: values may come before it.

How the values were obtained:
[1] = tested on: EGF receptor tyrosine kinase; conditions: in words; Fry et al., Science, 1994, 265, 1093; cited from earlier work
[2] = target: T1, EGF receptor tyrosine kinase (Homo sapiens, UniProt P00533); experiment: in vitro assay of inhibition of the enzyme EGF receptor tyrosine kinase (Test (a)); format: biochemical; conditions: EGF receptor tyrosine kinase from A-431 cells
T1 construct: Receptor tyrosine kinase was obtained in partially purified form from A-431 cells; endogenous in cells; host or cells: A-431 cells (human vulval carcinoma), Triton X-100-solubilised membrane fraction
Protocol: (a) An in vitro assay which determines the ability of a test compound to inhibit the enzyme EGF receptor tyrosine kinase. Receptor tyrosine kinase was obtained in partially purified form from A-431 cells (derived from human vulval carcinoma) by the procedures described below which are related to those described by Carpenter et al., J. Biol. Chem., 1979, 254, 4884, Cohen et al, J. Biol. Chem., 1982, 257, 1523 and by Braun et al., J. Biol. Chem., 1984, 259, 2051.
A-431 cells were grown to confluence using Dulbecco's modified Eagle's medium (DMEM) containing 5% fetal calf serum (FCS). The obtained cells were homogenised in a hypotonic borate/EDTA buffer at pH 10.1. The homogenate was centrifuged at 400 g for 10 minutes at 0-4° C. The supernatant was centrifuged at 25,000 g for 30 minutes at 0-4° C. […]
The test compound/EGF mixture solution (5 μl) was added to the test enzyme solution (10 μl) and the mixture was incubated at 0-4° C. for 30 minutes. […] Radioactivity present in the filter paper was measured using a liquid scintillation counter (Sequence A). […]
Receptor tyrosine kinase inhibition was calculated as follows: [formula]
The extent of inhibition was then determined at a range of concentrations of test compound to give an IC50 value.

[3] = tested on: xenografts of the human vulval epidermoid carcinoma cell line A431; experiment: in vivo assay in athymic nude mice of inhibition of growth of A431 xenografts (Test (d)); parameters: species or system athymic nude mice (human A431 xenograft); conditions: 200 mg/kg/day, once daily, usually oral
Protocol: (d) An in-vivo assay in a group of athymic nude mice (strain ONU:Alpk) which determines the ability of a test compound (usually administered orally as a ball-milled suspension in 0.5% polysorbate) to inhibit the growth of xenografts of the human vulval epidermoid carcinoma cell line A431.
A431 cells were maintained in culture in DMEM supplemented with 5% FCS and 2 mM glutamine. Freshly cultured cells were harvested by trypsinization and injected subcutaneously (10 million cells/0.1 ml/mouse) into both flanks of a number of donor nude mice. When sufficient tumour material was available (after approximately 9 to 14 days), fragments of tumour tissue were transplanted into the flanks of recipient nude mice (test day 0). On the eighth day after transplantation (test day 7) groups of 8 to 10 mice with similar-sized tumours were selected and dosing of the test compound was commenced. Once-daily dosing of test compound was continued for a total of 13 days (test days 7 to 19 inclusive). In some studies the dosing of the test compound was continued beyond test day 19, for example to test day 26. In each case, on the following day the animals were killed and final tumour volume was calculated from measurements of the length and width of the tumours. Results were calculated as a percentage inhibition of tumour volume relative to untreated controls.

[4] = tested on: KB cells; experiment: in vitro assay of inhibition of EGF-stimulated growth of the human naso-pharyngeal cancer cell line KB (Test (b)); format: cell-based; conditions: 72 h, EGF 10 ng/ml, 3 days
Protocol: (b) An in vitro assay which determines the ability of a test compound to inhibit the EGF-stimulated growth of the human naso-pharyngeal cancer cell line KB. KB cells were seeded into wells at a density of 1×10^4 -1.5×10^4 cells per well and grown for 24 hours in DMEM supplemented with 5% FCS (charcoal-stripped). Cell growth was determined after incubation for 3 days by the extent of metabolism of MTT tetrazolium dye to furnish a bluish colour. Cell growth was then determined in the presence of EGF (10 ng/ml) or in the presence of EGF (10 ng/ml) and a test compound at a range of concentrations. An IC50 value could then be calculated.

[5] = tested on: liver hepatocyte growth; experiment: in vivo assay in male rats of inhibition of TGFα-stimulated liver hepatocyte growth (Test (c)); conditions: Rattus norvegicus, usually oral, inhibition of BrdU uptake, approximate ED50
Protocol: (c) An in vivo assay in a group of male rats which determines the ability of a test compound (usually administered orally as a ball-milled suspension in 0.5% polysorbate) to inhibit the stimulation of liver hepatocyte growth caused by the administration of the growth factor TGFα (400 μg/kg subcutaneously, usually dosed twice, 3 and 7 hours respectively after the administration of the test compound).
In a control group of rats, the administration of TGFα causes on average a 5-fold stimulation of liver hepatocyte growth.
Cell-growth in the control and test animals is determined as follows:
On the morning of the day after the dosing of the test compound (or 0.5% polysorbate in the control group), the animals are dosed with bromodeoxyuridine (BrdU; 100 mg/kg intraperitoneally). The animals are killed four hours later and the livers are excised. […] Further tests were carried out using a range of doses of the test compounds to allow the calculation of an approximate ED50 value for the inhibition of liver hepatocyte proliferation as determined by inhibition of the uptake of BrdU.

[6] = tested on: human mammary carcinoma which expresses EGF receptor tyrosine kinase; conditions: athymic nude mice; Toi et al., 1990; cited from earlier work
[7] = tested on: another carcinoma which does not express EGF receptor tyrosine kinase; conditions: athymic nude mice; Toi et al., 1990; cited from earlier work

T1 sequence (P00533 25-1210): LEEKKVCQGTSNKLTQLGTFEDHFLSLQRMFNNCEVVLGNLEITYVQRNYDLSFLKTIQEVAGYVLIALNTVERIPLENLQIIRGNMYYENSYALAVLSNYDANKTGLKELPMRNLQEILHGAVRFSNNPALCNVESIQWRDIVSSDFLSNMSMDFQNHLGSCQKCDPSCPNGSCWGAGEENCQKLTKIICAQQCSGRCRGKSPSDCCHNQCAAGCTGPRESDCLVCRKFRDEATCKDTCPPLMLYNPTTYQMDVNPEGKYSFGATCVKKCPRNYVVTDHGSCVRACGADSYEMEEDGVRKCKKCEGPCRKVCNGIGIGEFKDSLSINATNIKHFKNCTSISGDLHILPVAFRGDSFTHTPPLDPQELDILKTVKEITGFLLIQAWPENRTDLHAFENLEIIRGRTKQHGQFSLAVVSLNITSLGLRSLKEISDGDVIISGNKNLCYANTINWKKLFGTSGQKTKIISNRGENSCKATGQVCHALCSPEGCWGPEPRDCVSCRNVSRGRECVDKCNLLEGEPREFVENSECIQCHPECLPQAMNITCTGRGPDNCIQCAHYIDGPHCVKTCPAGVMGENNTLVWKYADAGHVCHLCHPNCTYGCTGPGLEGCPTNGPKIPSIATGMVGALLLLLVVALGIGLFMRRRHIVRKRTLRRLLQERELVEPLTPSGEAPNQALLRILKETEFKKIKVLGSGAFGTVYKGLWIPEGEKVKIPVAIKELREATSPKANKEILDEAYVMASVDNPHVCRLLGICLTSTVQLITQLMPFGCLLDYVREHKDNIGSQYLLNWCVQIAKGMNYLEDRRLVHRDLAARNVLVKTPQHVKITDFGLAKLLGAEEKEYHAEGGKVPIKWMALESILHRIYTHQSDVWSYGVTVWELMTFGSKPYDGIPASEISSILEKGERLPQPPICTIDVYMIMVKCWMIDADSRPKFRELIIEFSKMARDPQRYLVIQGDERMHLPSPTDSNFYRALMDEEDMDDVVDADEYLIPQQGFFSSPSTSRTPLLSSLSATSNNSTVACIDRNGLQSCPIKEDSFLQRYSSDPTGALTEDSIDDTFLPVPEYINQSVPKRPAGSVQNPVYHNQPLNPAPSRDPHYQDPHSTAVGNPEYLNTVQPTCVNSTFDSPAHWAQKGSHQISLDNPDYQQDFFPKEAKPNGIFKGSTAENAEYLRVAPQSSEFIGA
T1 sequence (P01133 971-1023 partner limits assumed): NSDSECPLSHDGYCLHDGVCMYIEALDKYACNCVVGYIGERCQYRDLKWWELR

Structure (SMILES): COc1cc2ncnc(Nc3cccc(Br)c3)c2cc1OC [4-(3-bromoanilino)-6,7-dimethoxyquinazoline]
- inhibition of EGF receptor tyrosine kinase [1]: highly potent inhibitor

- IC50 [2]: 26 nM
- IC50 [4]: 510 nM
Structure (SMILES): Cc1cccc(Nc2ncnc3ccc(-n4ccnc4)cc23)c1 [4-(3-methylanilino)-6-(1-imidazolyl)quinazoline]
- inhibition in Test (d) (percentage inhibition of tumour volume) [3]: 63%
- ED50 [5]: < 12.5 mg/kg

Structure (SMILES): O=CN/C=C/c1cc(O)ccc1O [erbstatin]
- growth of transplanted human mammary carcinoma expressing EGF receptor tyrosine kinase [6]: specifically attenuates the growth
- growth of another carcinoma not expressing EGF receptor tyrosine kinase [7]: without effect on the growth
